Test results published in patent publication US20140315933A1, “CHEMICAL COMPOUNDS” (Pfizer Limited, priority 2013, published 2014).
Counter-ions that a name gives are not always drawn.

Molecular target: T1, URAT-1 transporter (Homo sapiens, UniProt Q96S37)
T1 construct: expressed in transfected cells
Experiment: URAT-1 inhibitor activity: [14C]-uric acid uptake into CHO-URAT1(L)GFP#8 (CHO#8) cells, scintillation proximity
Format: cell-based
In short: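 Scintillation proximity read-out of 30 nM (final) [14C]-uric acid uptake over three hours at room temperature in chloride-free HEPES buffer pH 7.4. Compounds, 0–10 μM final with 0.25% DMSO, were added 15 minutes before substrate; cells were a clonal CHO line with human URAT1(L)-eGFP, preincubated 1 hour in chloride buffer.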

T1 sequence (Q96S37 with tags, fused parts or gaps): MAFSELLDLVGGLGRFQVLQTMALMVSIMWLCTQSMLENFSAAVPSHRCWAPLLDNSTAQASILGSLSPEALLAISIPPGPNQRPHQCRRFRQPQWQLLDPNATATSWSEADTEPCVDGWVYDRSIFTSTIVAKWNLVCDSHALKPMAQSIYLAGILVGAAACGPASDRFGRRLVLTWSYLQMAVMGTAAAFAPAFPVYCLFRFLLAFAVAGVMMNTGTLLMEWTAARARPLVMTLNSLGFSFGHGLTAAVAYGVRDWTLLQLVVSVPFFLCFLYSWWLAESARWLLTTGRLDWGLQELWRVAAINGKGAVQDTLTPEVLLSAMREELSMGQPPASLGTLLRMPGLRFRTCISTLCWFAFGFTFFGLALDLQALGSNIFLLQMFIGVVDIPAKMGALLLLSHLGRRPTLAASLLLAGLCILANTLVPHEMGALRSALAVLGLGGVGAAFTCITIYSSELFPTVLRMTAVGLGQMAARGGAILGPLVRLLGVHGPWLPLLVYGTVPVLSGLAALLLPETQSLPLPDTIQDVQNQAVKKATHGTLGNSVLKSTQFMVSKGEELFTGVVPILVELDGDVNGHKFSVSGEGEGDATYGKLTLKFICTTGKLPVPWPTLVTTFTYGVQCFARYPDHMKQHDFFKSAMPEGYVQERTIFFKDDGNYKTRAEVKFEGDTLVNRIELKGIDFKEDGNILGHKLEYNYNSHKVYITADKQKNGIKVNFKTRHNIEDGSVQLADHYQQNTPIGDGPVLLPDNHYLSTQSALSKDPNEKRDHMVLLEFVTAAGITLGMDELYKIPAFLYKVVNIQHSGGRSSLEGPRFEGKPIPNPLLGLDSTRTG

SMILES	IC50
COc1cc(Cl)ccc1Oc1ccc(S(=O)(=O)Nc2nncs2)c(OC)c1 [Example 80, 4-(4-chloro-2-methoxyphenoxy)-2-methoxy-N-(1,3,4-thiadiazol-2-yl)benzenesulfonamide]	> 5780 nM
COc1cc(Cl)ccc1Oc1ccc(S(=O)(=O)Nc2cscn2)c(Cl)c1 [Example 81, 2-chloro-4-(4-chloro-2-methoxyphenoxy)-N-(1,3-thiazol-4-yl)benzenesulfonamide diethylamine salt]	3600 nM
COc1cc(Cl)ccc1Oc1ccc(S(=O)(=O)Nc2nncs2)c(Cl)c1 [Example 82, 2-chloro-4-(4-chloro-2-methoxyphenoxy)-N-(1,3,4-thiadiazol-2-yl)benzenesulfonamide diethylamine salt]	340 nM
O=S(=O)(Nc1nccs1)c1ccc(Oc2ncncc2Br)c(F)c1 [Example 83, 4-[(5-bromopyrimidin-4-yl)oxy]-3-fluoro-N-(1,3-thiazol-2-yl)benzenesulfonamide]	1140 nM
N#Cc1cc(S(=O)(=O)Nc2ncc(Cl)s2)ccc1Oc1ccccc1F [Example 84, N-(5-chloro-1,3-thiazol-2-yl)-3-cyano-4-(2-fluorophenoxy)benzenesulfonamide]	681 nM
N#Cc1cc(S(=O)(=O)Nc2ncc(Cl)s2)ccc1Oc1ccccc1Cl [Example 85, 4-(2-chlorophenoxy)-N-(5-chloro-1,3-thiazol-2-yl)-3-cyanobenzenesulfonamide]	845 nM
N#Cc1cc(S(=O)(=O)Nc2ncc(Cl)s2)ccc1Oc1cc(Cl)ccc1Cl [Example 86, N-(5-chloro-1,3-thiazol-2-yl)-3-cyano-4-(2,5-dichlorophenoxy)benzenesulfonamide]	680 nM
N#Cc1cc(S(=O)(=O)Nc2ncc(Cl)s2)ccc1Oc1ccc(Cl)cc1F [Example 87, 4-(4-chloro-2-fluorophenoxy)-N-(5-chloro-1,3-thiazol-2-yl)-3-cyanobenzenesulfonamide]	415 nM
N#Cc1cc(S(=O)(=O)Nc2ncc(Cl)s2)ccc1Oc1ccc(C(F)(F)F)cc1 [Example 88, N-(5-chloro-1,3-thiazol-2-yl)-3-cyano-4-[4-(trifluoromethyl)phenoxy]benzenesulfonamide]	> 6720 nM
N#Cc1cc(S(=O)(=O)Nc2ncc(Cl)s2)ccc1Oc1cccc(C(F)(F)F)c1 [Example 89, N-(5-chloro-1,3-thiazol-2-yl)-3-cyano-4-[3-(trifluoromethyl)phenoxy]benzenesulfonamide]	2830 nM
COc1cc(OC)c(Oc2ccc(S(=O)(=O)Nc3ncc(Cl)s3)cc2C#N)c(OC)c1 [Example 90, N-(5-chloro-1,3-thiazol-2-yl)-3-cyano-4-(2,4,6-trimethoxyphenoxy)benzenesulfonamide]	1670 nM
N#Cc1cc(S(=O)(=O)Nc2ncc(F)s2)ccc1Oc1ccc(Cl)cc1OC(F)(F)F [Example 91, 4-[4-chloro-2-(trifluoromethoxy)phenoxy]-3-cyano-N-(5-fluoro-1,3-thiazol-2-yl)benzenesulfonamide]	2630 nM
N#Cc1cc(S(=O)(=O)Nc2ncc(F)s2)ccc1Oc1ccc(Cl)cc1C(F)(F)F [Example 92, 4-[4-chloro-2-(trifluoromethyl)phenoxy]-3-cyano-N-(5-fluoro-1,3-thiazol-2-yl)benzenesulfonamide]	> 7860 nM
Cc1cc(F)ccc1Oc1ccc(S(=O)(=O)Nc2ncc(F)s2)cc1C#N [Example 93, 3-cyano-4-(4-fluoro-2-methylphenoxy)-N-(5-fluoro-1,3-thiazol-2-yl)benzenesulfonamide]	> 1610 nM
N#Cc1cc(S(=O)(=O)Nc2ncc(F)s2)ccc1Oc1c(F)cccc1F [Example 94, 3-cyano-4-(2,6-difluorophenoxy)-N-(5-fluoro-1,3-thiazol-2-yl)benzenesulfonamide]	621 nM
CCc1ccc(Oc2ccc(S(=O)(=O)Nc3ncc(F)s3)cc2C#N)cc1 [Example 95, 3-cyano-4-(4-ethylphenoxy)-N-(5-fluoro-1,3-thiazol-2-yl)benzenesulfonamide]	> 7360 nM
N#Cc1cc(S(=O)(=O)Nc2ncc(F)s2)ccc1Oc1ccccc1Cl [Example 96, 4-(2-chlorophenoxy)-3-cyano-N-(5-fluoro-1,3-thiazol-2-yl)benzenesulfonamide]	675 nM
CC(C)c1ccccc1Oc1ccc(S(=O)(=O)Nc2ncc(F)s2)cc1C#N [Example 97, 3-cyano-N-(5-fluoro-1,3-thiazol-2-yl)-4-[2-(propan-2-yl)phenoxy]benzenesulfonamide]	1170 nM
N#Cc1cc(S(=O)(=O)Nc2ncc(F)s2)ccc1Oc1ccc(Cl)cc1 [Example 98, 4-(4-chlorophenoxy)-3-cyano-N-(5-fluoro-1,3-thiazol-2-yl)benzenesulfonamide]	> 1690 nM
CCc1cccc(Oc2ccc(S(=O)(=O)Nc3ncc(F)s3)cc2C#N)c1 [Example 99, 3-cyano-4-(3-ethylphenoxy)-N-(5-fluoro-1,3-thiazol-2-yl)benzenesulfonamide]	1630 nM
CCOc1cccc(Oc2ccc(S(=O)(=O)Nc3ncc(F)s3)cc2C#N)c1 [Example 100, 3-cyano-4-(3-ethoxyphenoxy)-N-(5-fluoro-1,3-thiazol-2-yl)benzenesulfonamide]	554 nM

SMILES	IC50
Cc1ccc(Oc2ccc(S(=O)(=O)Nc3ncc(F)s3)cc2C#N)c(C)c1 [Example 101, 3-cyano-4-(2,4-dimethylphenoxy)-N-(5-fluoro-1,3-thiazol-2-yl)benzenesulfonamide]	1760 nM
N#Cc1cc(S(=O)(=O)Nc2ncc(F)s2)ccc1Oc1cc(F)ccc1F [Example 102, 3-cyano-4-(2,5-difluorophenoxy)-N-(5-fluoro-1,3-thiazol-2-yl)benzenesulfonamide]	1430 nM
CC(C)c1ccc(Oc2ccc(S(=O)(=O)Nc3ncc(F)s3)cc2C#N)cc1 [Example 103, 3-cyano-N-(5-fluoro-1,3-thiazol-2-yl)-4-[4-(propan-2-yl)phenoxy]benzenesulfonamide]	> 6780 nM
N#Cc1cc(S(=O)(=O)Nc2ncc(F)s2)ccc1Oc1ccccc1F [Example 104, 3-cyano-4-(2-fluorophenoxy)-N-(5-fluoro-1,3-thiazol-2-yl)benzenesulfonamide]	2620 nM
Cc1ccc(F)cc1Oc1ccc(S(=O)(=O)Nc2ncc(F)s2)cc1C#N [Example 105, 3-cyano-4-(5-fluoro-2-methylphenoxy)-N-(5-fluoro-1,3-thiazol-2-yl)benzenesulfonamide]	> 1790 nM
N#Cc1cc(S(=O)(=O)Nc2ncc(F)s2)ccc1Oc1cc(F)cc(F)c1 [Example 106, 3-cyano-4-(3,5-difluorophenoxy)-N-(5-fluoro-1,3-thiazol-2-yl)benzenesulfonamide]	> 1340 nM
CC(C)c1cccc(Oc2ccc(S(=O)(=O)Nc3ncc(F)s3)cc2C#N)c1 [Example 107, 3-cyano-N-(5-fluoro-1,3-thiazol-2-yl)-4-[3-(propan-2-yl)phenoxy]benzenesulfonamide]	> 6780 nM
CCc1ccccc1Oc1ccc(S(=O)(=O)Nc2ncc(F)s2)cc1C#N [Example 108, 3-cyano-4-(2-ethylphenoxy)-N-(5-fluoro-1,3-thiazol-2-yl)benzenesulfonamide]	345 nM
COc1cccc(Oc2ccc(S(=O)(=O)Nc3ncc(F)s3)cc2C#N)c1 [Example 109, 3-cyano-N-(5-fluoro-1,3-thiazol-2-yl)-4-(3-methoxyphenoxy)benzenesulfonamide]	552 nM
N#Cc1cc(S(=O)(=O)Nc2ncc(F)s2)ccc1Oc1cccc(Cl)c1 [Example 110, 4-(3-chlorophenoxy)-3-cyano-N-(5-fluoro-1,3-thiazol-2-yl)benzenesulfonamide]	> 7540 nM
N#Cc1cc(S(=O)(=O)Nc2ncc(F)s2)ccc1Oc1ccc(F)c(Cl)c1 [Example 111, 4-(3-chloro-4-fluorophenoxy)-3-cyano-N-(5-fluoro-1,3-thiazol-2-yl)benzenesulfonamide]	871 nM
Cc1ccccc1Oc1ccc(S(=O)(=O)Nc2ncc(F)s2)cc1C#N [Example 112, 3-cyano-N-(5-fluoro-1,3-thiazol-2-yl)-4-(2-methylphenoxy)benzenesulfonamide]	4030 nM
N#Cc1cc(S(=O)(=O)Nc2ncc(F)s2)ccc1Oc1cc(F)c(F)cc1F [Example 113, 3-cyano-N-(5-fluoro-1,3-thiazol-2-yl)-4-(2,4,5-trifluorophenoxy)benzenesulfonamide]	1120 nM
N#Cc1cc(S(=O)(=O)Nc2ncc(F)s2)ccc1Oc1cccc(F)c1F [Example 114, 3-cyano-4-(2,3-difluorophenoxy)-N-(5-fluoro-1,3-thiazol-2-yl)benzenesulfonamide]	4410 nM
N#Cc1cc(S(=O)(=O)Nc2ncc(F)s2)ccc1Oc1c(F)ccc(F)c1F [Example 115, 3-cyano-N-(5-fluoro-1,3-thiazol-2-yl)-4-(2,3,6-trifluorophenoxy)benzenesulfonamide]	1630 nM
N#Cc1cc(S(=O)(=O)Nc2ncc(F)s2)ccc1Oc1ccc(Cl)cc1F [Example 116, 4-(4-chloro-2-fluorophenoxy)-3-cyano-N-(5-fluoro-1,3-thiazol-2-yl)benzenesulfonamide]	> 5310 nM
Cc1cc(Cl)ccc1Oc1ccc(S(=O)(=O)Nc2ncc(F)s2)cc1C#N [Example 117, 4-(4-chloro-2-methylphenoxy)-3-cyano-N-(5-fluoro-1,3-thiazol-2-yl)benzenesulfonamide]	1440 nM
N#Cc1cc(S(=O)(=O)Nc2ncc(F)s2)ccc1Oc1cc(F)c(F)c(F)c1 [Example 118, 3-cyano-N-(5-fluoro-1,3-thiazol-2-yl)-4-(3,4,5-trifluorophenoxy)benzenesulfonamide]	1380 nM
N#Cc1cc(S(=O)(=O)Nc2ncc(F)s2)ccc1Oc1cccc(Cl)c1F [Example 119, 4-(3-chloro-2-fluorophenoxy)-3-cyano-N-(5-fluoro-1,3-thiazol-2-yl)benzenesulfonamide]	1570 nM
Cc1ccc(Oc2ccc(S(=O)(=O)Nc3ncc(F)s3)cc2C#N)c(F)c1F [Example 120, 3-cyano-4-(2,3-difluoro-4-methylphenoxy)-N-(5-fluoro-1,3-thiazol-2-yl)benzenesulfonamide]	1320 nM
